Consider six compounds from patent US20240116985A1, “STAPLED PEPTIDES AND METHODS THEREOF” (priority 2020, published 2024).

For experiment [1], the target named is T1, beta-catenin/TCF4 engagement (Homo sapiens, UniProt P35222).
T1 construct: expressed in transfected cells; host or cells: HEK293
T1 sequence (P35222 1-781): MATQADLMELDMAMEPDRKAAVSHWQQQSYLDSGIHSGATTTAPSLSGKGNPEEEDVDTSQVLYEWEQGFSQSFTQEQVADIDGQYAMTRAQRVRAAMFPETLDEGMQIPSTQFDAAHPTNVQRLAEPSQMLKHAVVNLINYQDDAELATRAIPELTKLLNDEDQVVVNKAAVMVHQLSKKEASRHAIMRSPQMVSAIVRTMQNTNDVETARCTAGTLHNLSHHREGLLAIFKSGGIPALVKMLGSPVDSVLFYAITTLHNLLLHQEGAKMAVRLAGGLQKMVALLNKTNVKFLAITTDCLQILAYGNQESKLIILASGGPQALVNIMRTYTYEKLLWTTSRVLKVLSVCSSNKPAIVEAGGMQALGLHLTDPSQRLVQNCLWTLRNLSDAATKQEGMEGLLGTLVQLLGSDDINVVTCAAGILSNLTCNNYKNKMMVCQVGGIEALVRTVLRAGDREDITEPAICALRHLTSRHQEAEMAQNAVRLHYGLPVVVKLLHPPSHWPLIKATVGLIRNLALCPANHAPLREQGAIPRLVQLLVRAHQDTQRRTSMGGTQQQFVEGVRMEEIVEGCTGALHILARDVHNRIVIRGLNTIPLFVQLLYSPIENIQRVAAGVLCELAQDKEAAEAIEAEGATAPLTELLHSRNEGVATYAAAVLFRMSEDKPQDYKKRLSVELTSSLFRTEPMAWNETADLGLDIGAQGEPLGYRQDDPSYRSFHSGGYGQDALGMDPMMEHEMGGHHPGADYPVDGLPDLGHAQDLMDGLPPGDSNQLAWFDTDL
The experiment in a line: Nano-BRET target engagement assay (B-cat-Halo & TCF4-Luc in HEK293 cells). The settings on record: absolute IC50; read-out: NanoBRET Abs IC50. Type of experiment: cell-based.

The target in experiment [2] is T2, full-length beta-Catenin (Uniprot ID P35222) (Homo sapiens, UniProt P35222).
T2 construct: 10 nM full-length beta-Catenin (Uniprot ID P35222)
T2 sequence (P35222 1-781): T1 sequence (P35222 1-781)
In words: Fluorescence polarization IC50 (beta-catenin / 5FAM-TCF4 10-53 competition). The class given is binding. The conditions noted are these: fluorescence polarization; read-out: beta-Catenin FP IC50. In general terms: Fluorescence polarisation rises when a labelled molecule tumbles more slowly, as on binding a larger partner.

Consider `CCS(=O)(=O)N1CCN(C(=O)CC[C@@H]2NC(=O)[C@H](Cc3cccc(C(=O)O)c3)NC(=O)[C@H](CC(=O)O)NC(=O)C3(CCCC=CCCCOC(=O)N4CC[C@@](C(=O)N[C@@H](Cc5ccccc5C(F)(F)F)C(=O)N[C@@H](Cc5csc6ccccc56)C(=O)N[C@@H](C)C(N)=O)(C4)NC(=O)[C@H](CC(C)C)NC(=O)[C@H](Cc4ccccc4)NC(=O)[C@H](C)NC2=O)CCCC=CC[C@]2(CCCN2C(C)=O)C(=O)N[C@@H](CC(=O)O)C(=O)N[C@@H](CC(C)(C)C)C(=O)N3)CC1` (stereo partly drawn) [I-2321, Ac-PL3-Asp-Npg-B5-Asp-3COOHF-[EtSO2Ppz]GlnR-Ala-Phe-Leu-PyrS2-2F3MeF-BztA-Ala-NH2], for which the IC50 turned out to be 1700 nM in experiment [1] and 5 nM in experiment [2].

`CC(=O)N1CCC[C@]12CC=CCCCC1(CCCC=CCCCOC(=O)N3CC[C@@](C(=O)N[C@@H](Cc4ccccc4C(F)(F)F)C(=O)N[C@@H](Cc4csc5ccccc45)C(=O)N[C@@H](C)C(N)=O)(C3)NC(=O)[C@H](CC(C)C)NC(=O)[C@H](Cc3ccccc3)NC(=O)[C@H](C)NC(=O)[C@H](CCC(=O)N3CCN(CCCN(C)C)CC3)NC(=O)[C@H](Cc3cccc(C(=O)O)c3)NC(=O)[C@H](CC(=O)O)NC1=O)NC(=O)[C@H](CC(C)(C)C)NC(=O)[C@H](CC(=O)O)NC2=O` (stereo partly drawn) [I-2323, Ac-PL3-Asp-Npg-B5-Asp-3COOHF-[Me2NPrPip]GlnR-Ala-Phe-Leu-PyrS2-2F3MeF-BztA-Ala-NH2]: the IC50 in experiment [1] is 17700 nM; in experiment [2], 6 nM.

For the compound `CC(=O)N1CC2CC1C(=O)N[C@@H](CC(=O)O)C(=O)N[C@@H](CC(C)(C)C)C(=O)NC1(CCCCCCCCOC(=O)N3CC[C@@](C(=O)N[C@@H](Cc4ccsc4)C(=O)N[C@@H](Cc4csc5ccccc45)C(=O)N[C@@H](CCC(N)=O)C(N)=O)(C3)NC(=O)[C@H](CC(C)C)NC(=O)[C@H](Cc3ccccc3)NC(=O)[C@H](C)NC(=O)[C@H](C)NC(=O)[C@H](CN(CC(=O)O)CC(F)(F)F)NC(=O)[C@H](CC(=O)O)NC1=O)CCCCCCOc1cccc(c1)C(=O)O2` (stereo partly drawn) [I-2328, Ac-HypBzEs3OAllyl-Asp-Npg-B5-Asp-TfeGA-Ala-Ala-Phe-Leu-PyrS2-3Thi-BztA-Gln-NH2], the IC50 in experiment [1] is greater than 20000 nM; in experiment [2], 170 nM.

Regarding `CC(=O)N1CCC[C@]12CC=CCCCC1(CCCC=CCCCOC(=O)N3CC[C@@](C(=O)N[C@@H](Cc4ccsc4)C(=O)N[C@@H](Cc4csc5ccccc45)C(=O)N[C@@H](CCC(N)=O)C(N)=O)(C3)NC(=O)[C@H]([C@@H](C)O)NC(=O)[C@H](Cc3ccccc3)NC(=O)[C@H](C)NC(=O)[C@H](C)NC(=O)[C@H](Cc3cccc(C(=O)O)c3)NC(=O)[C@H](CC(N)=O)NC1=O)NC(=O)[C@H](CC(C)(C)C)NC(=O)[C@H](CC(=O)O)NC2=O` (stereo partly drawn) [I-2336, Ac-PL3-Asp-Npg-B5-Asn-3COOHF-Ala-Ala-Phe-Thr-PyrS2-3Thi-BztA-Gln-NH2], the IC50 was found to be 14400 nM in experiment [1] and 19 nM in experiment [2].

`CC(=O)N1CCC[C@]12CC=CCCCC1(CCCC=CCCCOC(=O)N3CC[C@@](C(=O)N[C@@H](Cc4ccsc4)C(=O)N[C@@H](Cc4csc5ccccc45)C(=O)N[C@@H](CCC(N)=O)C(N)=O)(C3)NC(=O)[C@H](CC(N)=O)NC(=O)[C@H](Cc3ccccc3)NC(=O)[C@H](C)NC(=O)C(C)(C)NC(=O)[C@H]([C@@H](C)O)NC(=O)[C@H](CC(N)=O)NC1=O)NC(=O)[C@H](CC(C)(C)C)NC(=O)[C@H](CC(=O)O)NC2=O` (stereo partly drawn) [I-2338, Ac-PL3-Asp-Npg-B5-Asn-Thr-Aib-Ala-Phe-Asn-PyrS2-3Thi-BztA-Gln-NH2]: the concentration for half-maximal inhibition (IC50) is greater than 20000 nM in experiment [1] and 63 nM in experiment [2].

Consider `CC(=O)N1CCC[C@]12CC=CCCCC1(CCCC=CCCCOC(=O)N3CC[C@@](C(=O)N[C@@H](Cc4ccccc4)C(=O)N[C@@H](Cc4csc5ccccc45)C(=O)N[C@@H](CCC(N)=O)C(N)=O)(C3)NC(=O)[C@H](CC(C)C)NC(=O)[C@H](Cc3ccccc3)NC(=O)[C@H](C)NC(=O)[C@H](CCCCNC(C)C)NC(=O)[C@H](Cc3cccc(C(=O)O)c3)NC(=O)[C@H](CC(=O)O)NC1=O)NC(=O)[C@H](CC1CCCCC1)NC(=O)[C@H](CC(N)=O)NC2=O` (stereo partly drawn) [I-2340, Ac-PL3-Asn-Cha-B5-Asp-3COOHF-iPrLys-Ala-Phe-Leu-PyrS2-Phe-BztA-Gln-NH2], for which the IC50 in experiment [1] was greater than 20000 nM; in experiment [2], 5 nM.

The term IC50 denotes the concentration at which inhibition is half-maximal.
